Source: ChEMBL document CHEMBL1201862, “PubChem BioAssay data set” (2004)
Active and inactive are the calls of the source.

Columns and labels:
[1] = target: Ubiquitin carboxyl-terminal hydrolase BAP1 (Homo sapiens, UniProt Q92560); assay: BAP1 deubiquitinase inhibitors, dose response, biochemical (AID 714); format: functional
[2] = target: Voltage-gated inwardly rectifying potassium channel KCNH2 (Homo sapiens, UniProt Q12809); assay: hERG protection from proarrhythmic block, potency, dose response, cell-based, thallium flux (AID 2121); format: ADME
Voltage-gated inwardly rectifying potassium channel KCNH2, sequence (Q12809 whole entry): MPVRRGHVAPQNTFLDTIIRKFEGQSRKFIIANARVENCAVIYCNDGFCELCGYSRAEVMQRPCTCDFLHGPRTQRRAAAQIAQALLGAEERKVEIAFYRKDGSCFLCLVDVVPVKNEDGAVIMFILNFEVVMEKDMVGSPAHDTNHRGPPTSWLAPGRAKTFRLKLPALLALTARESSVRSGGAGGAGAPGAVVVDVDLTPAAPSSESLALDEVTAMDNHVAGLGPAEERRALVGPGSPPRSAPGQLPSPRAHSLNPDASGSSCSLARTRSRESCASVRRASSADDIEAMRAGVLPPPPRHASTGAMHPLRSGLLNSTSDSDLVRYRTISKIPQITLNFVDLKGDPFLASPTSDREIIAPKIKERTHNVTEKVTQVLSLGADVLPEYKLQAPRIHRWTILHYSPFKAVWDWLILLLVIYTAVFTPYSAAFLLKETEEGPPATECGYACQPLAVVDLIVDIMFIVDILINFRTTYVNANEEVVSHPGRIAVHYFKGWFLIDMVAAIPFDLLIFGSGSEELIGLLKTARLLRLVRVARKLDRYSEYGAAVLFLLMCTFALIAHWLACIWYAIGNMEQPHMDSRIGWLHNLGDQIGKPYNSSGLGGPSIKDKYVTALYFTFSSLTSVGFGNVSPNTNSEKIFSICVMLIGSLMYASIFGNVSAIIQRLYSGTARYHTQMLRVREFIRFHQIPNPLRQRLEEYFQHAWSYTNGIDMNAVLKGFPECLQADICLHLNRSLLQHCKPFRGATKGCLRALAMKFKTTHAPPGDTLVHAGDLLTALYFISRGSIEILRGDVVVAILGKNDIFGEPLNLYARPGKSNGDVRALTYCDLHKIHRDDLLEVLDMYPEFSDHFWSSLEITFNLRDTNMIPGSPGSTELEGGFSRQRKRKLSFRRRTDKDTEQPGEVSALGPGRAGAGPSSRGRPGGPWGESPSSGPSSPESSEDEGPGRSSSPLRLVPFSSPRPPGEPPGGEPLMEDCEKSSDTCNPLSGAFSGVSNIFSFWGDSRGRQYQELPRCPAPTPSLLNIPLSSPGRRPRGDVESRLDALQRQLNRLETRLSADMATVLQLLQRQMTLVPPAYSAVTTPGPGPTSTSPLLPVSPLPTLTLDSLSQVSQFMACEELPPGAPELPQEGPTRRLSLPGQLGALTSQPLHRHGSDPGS

[3] = HEp-2 cell cytotoxicity, dose response, cytotoxicity control for RSV inhibitor project, HTS (AID 2410); format: functional; conditions: human respiratory syncytial virus
[4] = target: E3 ubiquitin-protein ligase Mdm2 (Homo sapiens, UniProt Q00987); assay: enhancers of MDM2-luciferase reporter signal, concentration-effect titration, project on inhibitors of MDM2 ubiquitin ligase, cellular assay, luminescent readout, 384-well plate format (AID 1394); format: functional;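 further: MDM2 E3 inhibitors raise luminescence so EC50 is for signal enhancement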
E3 ubiquitin-protein ligase Mdm2, sequence (Q00987 whole entry): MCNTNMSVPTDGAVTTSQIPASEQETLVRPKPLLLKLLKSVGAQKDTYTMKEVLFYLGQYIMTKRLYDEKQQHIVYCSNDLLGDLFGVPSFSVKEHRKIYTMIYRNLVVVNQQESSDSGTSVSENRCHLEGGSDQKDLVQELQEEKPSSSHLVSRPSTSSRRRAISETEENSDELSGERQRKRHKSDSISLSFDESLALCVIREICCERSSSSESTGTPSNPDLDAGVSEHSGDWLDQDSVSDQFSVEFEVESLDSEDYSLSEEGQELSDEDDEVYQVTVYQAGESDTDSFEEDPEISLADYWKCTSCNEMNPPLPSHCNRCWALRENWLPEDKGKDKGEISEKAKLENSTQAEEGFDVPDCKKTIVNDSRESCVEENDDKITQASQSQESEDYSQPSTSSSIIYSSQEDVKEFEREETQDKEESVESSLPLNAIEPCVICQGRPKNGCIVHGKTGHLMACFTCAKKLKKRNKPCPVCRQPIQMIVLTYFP

[5] = target: Serine/threonine-protein phosphatase PP1-alpha catalytic subunit (Homo sapiens, UniProt P62136); assay: PP1 phosphatase inhibitors, dose response, biochemical, fluorescence (AID 2394)
Serine/threonine-protein phosphatase PP1-alpha catalytic subunit, sequence (P62136 whole entry): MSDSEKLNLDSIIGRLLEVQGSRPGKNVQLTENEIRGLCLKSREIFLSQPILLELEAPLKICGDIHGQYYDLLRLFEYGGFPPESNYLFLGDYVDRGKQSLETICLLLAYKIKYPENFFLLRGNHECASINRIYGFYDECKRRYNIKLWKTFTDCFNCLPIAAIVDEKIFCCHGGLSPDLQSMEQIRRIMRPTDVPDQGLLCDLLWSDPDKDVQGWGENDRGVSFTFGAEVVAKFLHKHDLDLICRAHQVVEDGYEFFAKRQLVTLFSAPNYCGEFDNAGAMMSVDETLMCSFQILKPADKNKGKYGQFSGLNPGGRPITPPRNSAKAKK

Protein RecA = target: T1, Protein RecA (Mycobacterium tuberculosis, UniProt P9WHJ3); assay: Fluorescence Cell-Free Homogeneous Dose Retest to Identify Inhibitors of RecA-Intein Splicing Activity. [Related pubchem assays (depositor defined):AID2097, AID2223, AID489010, AID492950]; format: functional
T1 sequence (P9WHJ3 whole entry): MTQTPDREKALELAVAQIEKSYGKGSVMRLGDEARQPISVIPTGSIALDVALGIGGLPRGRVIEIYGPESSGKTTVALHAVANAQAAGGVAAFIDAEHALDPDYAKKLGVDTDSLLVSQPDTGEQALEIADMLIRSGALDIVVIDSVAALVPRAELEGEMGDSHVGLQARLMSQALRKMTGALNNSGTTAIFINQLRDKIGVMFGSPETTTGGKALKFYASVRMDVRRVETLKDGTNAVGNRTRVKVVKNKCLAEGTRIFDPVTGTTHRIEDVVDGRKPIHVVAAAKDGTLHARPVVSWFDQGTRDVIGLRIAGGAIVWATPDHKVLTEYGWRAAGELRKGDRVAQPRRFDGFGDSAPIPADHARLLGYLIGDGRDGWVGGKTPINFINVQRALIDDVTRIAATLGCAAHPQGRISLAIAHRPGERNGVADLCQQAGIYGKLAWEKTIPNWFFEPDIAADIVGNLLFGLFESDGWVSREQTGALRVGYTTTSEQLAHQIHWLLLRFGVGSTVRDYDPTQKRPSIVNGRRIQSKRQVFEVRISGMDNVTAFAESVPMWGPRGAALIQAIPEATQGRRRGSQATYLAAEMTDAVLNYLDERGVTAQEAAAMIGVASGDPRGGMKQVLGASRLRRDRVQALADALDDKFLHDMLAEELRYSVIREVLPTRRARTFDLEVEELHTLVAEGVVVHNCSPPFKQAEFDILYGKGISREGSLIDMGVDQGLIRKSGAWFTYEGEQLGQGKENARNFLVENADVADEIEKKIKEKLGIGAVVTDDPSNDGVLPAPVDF

[6] = target: Serine/threonine-protein phosphatase (Homo sapiens, UniProt Q9BPW0); assay: PP5 phosphatase inhibitors, dose response, biochemical, fluorescence (AID 2395)
Serine/threonine-protein phosphatase, sequence (Q9BPW0 whole entry): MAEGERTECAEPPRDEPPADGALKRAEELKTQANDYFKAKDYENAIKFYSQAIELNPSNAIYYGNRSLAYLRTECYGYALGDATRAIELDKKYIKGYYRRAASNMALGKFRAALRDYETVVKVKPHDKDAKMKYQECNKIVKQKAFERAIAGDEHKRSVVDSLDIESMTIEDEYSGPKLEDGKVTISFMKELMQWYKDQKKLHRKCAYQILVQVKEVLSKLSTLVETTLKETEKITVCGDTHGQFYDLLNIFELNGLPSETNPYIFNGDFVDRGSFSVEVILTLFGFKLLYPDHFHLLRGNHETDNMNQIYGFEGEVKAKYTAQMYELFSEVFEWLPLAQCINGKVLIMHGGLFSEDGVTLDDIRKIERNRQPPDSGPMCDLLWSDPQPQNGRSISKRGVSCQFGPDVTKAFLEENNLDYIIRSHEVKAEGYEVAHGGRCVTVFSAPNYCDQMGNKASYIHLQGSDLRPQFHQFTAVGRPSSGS

[7] = target: T2, Tyrosyl-DNA phosphodiesterase 2 (Homo sapiens, UniProt O95551); assay: human TDP2 enzyme inhibitors, dose response, biochemical, epi absorbance, IC50 (AID 743297)
T2 sequence (O95551 whole entry): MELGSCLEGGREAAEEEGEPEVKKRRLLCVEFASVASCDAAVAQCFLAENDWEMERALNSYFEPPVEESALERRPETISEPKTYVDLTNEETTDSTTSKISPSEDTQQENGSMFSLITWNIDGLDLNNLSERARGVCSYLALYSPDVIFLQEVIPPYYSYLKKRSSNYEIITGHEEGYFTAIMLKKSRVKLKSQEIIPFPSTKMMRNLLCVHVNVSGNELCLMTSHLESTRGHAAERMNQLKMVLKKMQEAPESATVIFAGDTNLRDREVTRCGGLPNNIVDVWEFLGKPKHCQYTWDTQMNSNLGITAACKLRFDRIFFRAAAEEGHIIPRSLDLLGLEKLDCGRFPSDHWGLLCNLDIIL

[8] = microbe, parasite or virus in culture; format: functional; conditions: Mycobacterium tuberculosis
[9] = target: T3, Apoptotic protease-activating factor 1 (Homo sapiens, UniProt O14727); format: functional
T3 sequence (O14727 whole entry): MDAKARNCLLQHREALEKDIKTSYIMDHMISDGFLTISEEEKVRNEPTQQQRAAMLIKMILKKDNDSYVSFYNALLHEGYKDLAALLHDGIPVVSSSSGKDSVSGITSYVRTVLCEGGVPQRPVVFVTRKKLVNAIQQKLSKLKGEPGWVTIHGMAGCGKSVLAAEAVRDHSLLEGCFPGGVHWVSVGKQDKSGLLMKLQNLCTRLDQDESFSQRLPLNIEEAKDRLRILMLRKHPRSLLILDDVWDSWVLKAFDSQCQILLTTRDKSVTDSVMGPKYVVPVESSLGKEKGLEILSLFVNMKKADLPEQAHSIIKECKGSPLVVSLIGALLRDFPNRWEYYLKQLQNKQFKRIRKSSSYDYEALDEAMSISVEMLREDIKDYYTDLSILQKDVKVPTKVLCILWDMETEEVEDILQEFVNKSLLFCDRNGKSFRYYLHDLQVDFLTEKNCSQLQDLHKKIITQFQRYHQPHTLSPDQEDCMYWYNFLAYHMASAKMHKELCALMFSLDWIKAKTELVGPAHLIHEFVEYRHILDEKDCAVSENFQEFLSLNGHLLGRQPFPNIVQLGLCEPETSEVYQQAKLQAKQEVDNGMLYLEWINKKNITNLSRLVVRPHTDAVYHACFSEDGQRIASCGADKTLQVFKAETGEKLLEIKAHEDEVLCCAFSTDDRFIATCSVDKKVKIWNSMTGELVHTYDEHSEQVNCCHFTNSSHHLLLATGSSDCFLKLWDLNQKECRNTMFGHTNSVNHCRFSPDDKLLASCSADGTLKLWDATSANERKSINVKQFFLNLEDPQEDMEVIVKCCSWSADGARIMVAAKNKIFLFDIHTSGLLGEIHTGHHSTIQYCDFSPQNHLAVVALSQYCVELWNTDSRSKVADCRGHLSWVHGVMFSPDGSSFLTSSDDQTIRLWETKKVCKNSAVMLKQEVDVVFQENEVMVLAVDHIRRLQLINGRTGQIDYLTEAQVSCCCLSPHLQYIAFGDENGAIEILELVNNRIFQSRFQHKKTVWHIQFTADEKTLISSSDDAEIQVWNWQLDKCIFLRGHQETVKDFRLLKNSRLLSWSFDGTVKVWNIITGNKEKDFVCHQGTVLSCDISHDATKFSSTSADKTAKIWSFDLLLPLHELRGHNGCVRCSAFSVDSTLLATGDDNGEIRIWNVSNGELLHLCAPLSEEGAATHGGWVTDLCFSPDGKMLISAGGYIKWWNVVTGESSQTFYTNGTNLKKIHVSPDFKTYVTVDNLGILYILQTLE

[10] = target: T4, Replicative DNA helicase DnaB (Mycobacterium tuberculosis, UniProt P9WMR3); assay: DnaB intein splicing inhibitors, dose response, biochemical, cell-free fluorescence (AID 449749); format: functional
T4 sequence (P9WMR3 whole entry): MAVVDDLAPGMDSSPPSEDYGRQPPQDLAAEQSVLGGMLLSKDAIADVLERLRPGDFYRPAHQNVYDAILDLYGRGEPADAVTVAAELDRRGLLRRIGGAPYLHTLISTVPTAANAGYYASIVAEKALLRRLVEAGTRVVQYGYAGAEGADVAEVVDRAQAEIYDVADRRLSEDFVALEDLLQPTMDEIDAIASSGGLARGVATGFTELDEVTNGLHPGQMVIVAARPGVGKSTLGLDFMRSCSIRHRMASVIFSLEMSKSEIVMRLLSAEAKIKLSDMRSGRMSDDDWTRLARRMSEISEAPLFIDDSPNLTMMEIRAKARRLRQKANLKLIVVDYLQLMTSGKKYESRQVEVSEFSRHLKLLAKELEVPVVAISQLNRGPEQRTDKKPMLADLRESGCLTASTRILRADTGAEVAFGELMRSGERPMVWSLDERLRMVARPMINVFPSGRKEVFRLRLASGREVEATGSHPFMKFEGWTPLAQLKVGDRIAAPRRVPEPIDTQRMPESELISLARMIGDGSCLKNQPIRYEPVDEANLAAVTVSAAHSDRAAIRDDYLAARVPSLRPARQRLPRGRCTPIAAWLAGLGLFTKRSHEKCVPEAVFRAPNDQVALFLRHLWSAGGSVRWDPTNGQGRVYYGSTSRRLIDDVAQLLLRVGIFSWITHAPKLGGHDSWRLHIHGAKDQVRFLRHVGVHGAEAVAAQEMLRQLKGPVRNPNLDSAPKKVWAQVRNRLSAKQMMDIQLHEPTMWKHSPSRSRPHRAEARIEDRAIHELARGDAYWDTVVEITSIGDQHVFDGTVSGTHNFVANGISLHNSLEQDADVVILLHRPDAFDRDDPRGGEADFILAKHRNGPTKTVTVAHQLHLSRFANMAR

[11] = target: Heat shock protein HSP 90-alpha (Homo sapiens, UniProt P07900); assay: Luminescence-based dose response biochemical high throughput screening assay for inhibitors of the Heat Shock Protein 90 (HSP90). [Related pubchem assays: 1831 (Summary AID.), 1846 (Confirmation screen.), 1789 (Primary screen.)]
[12] = target: T5, Low molecular weight phosphotyrosine protein phosphatase (Homo sapiens, UniProt P24666); assay: LMPTP phosphatase inhibitors, colorimetric pNPP readout, dose response, orthogonal assay, biochemical, absorbance, pNPP substrate, LMPTP-A isoform, set 2 (AID 743308); format: functional
T5 sequence (P24666 whole entry): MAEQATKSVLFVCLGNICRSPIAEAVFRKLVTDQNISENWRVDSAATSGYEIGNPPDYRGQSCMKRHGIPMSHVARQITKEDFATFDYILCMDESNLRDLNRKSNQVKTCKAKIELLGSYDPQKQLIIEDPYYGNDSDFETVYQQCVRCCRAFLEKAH

[13] = target: T5, Low molecular weight phosphotyrosine protein phosphatase; assay: LMPTP phosphatase inhibitors, dose response, biochemical, OMFP substrate, fluorescence intensity, set 2 (AID 743307); format: functional
Ephrin type-A receptor 4 = Ephrin type-A receptor 4 (Mus musculus, UniProt Q03137); assay: inhibitors of EphA4 binding to KYL peptide, primary screen, biochemical, colorimetric, mouse EphA4 (AID 689); format: functional
Ephrin type-A receptor 4, sequence (Q03137 whole entry): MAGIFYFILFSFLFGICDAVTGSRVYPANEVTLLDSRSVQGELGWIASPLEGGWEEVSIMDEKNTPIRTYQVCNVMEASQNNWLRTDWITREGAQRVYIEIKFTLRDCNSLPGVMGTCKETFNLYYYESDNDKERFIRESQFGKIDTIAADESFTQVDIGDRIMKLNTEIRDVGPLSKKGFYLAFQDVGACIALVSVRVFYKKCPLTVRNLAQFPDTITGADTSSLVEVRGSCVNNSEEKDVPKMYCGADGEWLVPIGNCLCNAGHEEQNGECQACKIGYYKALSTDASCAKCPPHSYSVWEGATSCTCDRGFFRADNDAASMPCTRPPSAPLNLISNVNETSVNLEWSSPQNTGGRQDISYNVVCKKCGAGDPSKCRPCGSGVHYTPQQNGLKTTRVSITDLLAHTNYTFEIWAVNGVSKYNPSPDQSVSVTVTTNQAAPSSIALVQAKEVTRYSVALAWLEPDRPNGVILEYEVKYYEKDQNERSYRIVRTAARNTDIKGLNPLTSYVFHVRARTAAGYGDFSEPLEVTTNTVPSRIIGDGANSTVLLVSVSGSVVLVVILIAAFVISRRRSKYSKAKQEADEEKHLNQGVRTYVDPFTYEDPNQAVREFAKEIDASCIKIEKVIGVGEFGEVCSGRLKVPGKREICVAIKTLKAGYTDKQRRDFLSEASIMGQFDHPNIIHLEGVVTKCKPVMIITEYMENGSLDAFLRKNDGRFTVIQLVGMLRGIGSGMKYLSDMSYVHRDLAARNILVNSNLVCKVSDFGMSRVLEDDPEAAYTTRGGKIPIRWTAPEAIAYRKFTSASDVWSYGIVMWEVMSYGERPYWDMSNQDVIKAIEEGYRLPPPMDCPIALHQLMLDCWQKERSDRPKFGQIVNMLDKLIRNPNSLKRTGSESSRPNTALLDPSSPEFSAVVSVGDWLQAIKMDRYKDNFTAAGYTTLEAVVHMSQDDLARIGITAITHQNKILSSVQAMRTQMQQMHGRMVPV

[14] = target: Muscarinic acetylcholine receptor M1 (Rattus norvegicus, UniProt P08482); assay: rat M1 positive allosteric modulator potency, dose response, cell-based, calcium mobilization, CHO-K1, ACh EC20 (AID 2425); format: functional
Muscarinic acetylcholine receptor M1, sequence (P08482 whole entry): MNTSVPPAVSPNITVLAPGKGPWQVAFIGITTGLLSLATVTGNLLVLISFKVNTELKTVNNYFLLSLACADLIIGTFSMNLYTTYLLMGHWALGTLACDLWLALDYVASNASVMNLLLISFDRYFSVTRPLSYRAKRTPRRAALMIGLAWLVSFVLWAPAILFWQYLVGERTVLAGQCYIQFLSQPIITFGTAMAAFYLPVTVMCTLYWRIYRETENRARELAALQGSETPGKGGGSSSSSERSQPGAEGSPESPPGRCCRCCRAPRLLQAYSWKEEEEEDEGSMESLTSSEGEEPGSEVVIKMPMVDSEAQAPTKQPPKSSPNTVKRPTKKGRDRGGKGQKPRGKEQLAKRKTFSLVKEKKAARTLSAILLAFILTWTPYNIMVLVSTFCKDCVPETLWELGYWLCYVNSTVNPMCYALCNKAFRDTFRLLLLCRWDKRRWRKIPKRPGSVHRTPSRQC

Ubiquitin carboxyl-terminal hydrolase BAP1, sequence (Q92560 whole entry): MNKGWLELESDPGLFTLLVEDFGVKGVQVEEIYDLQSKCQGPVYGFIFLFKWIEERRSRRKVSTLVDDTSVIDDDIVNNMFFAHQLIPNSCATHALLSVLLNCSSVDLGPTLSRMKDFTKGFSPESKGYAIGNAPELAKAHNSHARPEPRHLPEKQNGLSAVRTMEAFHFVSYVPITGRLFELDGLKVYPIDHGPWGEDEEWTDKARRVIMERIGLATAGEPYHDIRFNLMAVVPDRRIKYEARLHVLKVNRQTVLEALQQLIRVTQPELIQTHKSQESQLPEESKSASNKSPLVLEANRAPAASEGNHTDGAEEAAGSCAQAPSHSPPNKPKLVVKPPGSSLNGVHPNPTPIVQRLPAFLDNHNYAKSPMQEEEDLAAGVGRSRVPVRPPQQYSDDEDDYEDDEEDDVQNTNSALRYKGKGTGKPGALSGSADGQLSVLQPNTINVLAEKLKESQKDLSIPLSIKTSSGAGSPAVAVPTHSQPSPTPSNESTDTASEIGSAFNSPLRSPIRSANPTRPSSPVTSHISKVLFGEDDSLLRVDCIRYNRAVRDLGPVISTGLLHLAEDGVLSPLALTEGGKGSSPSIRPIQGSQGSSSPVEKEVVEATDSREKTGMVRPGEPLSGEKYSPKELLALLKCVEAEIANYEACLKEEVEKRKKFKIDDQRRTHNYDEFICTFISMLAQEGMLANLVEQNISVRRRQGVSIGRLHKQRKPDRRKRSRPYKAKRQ

Cc1sc(NC(=O)CSc2nnc(COc3ccc(Cl)cc3)n2C)c(C#N)c1C
IC50 [1]: > 50 µM (not active)

Sc1ncnc2c1sc1nc(-c3ccccc3)c3c(c12)CCCC3
EC50 [2]: 1.69 µM (active) | CC50 [3]: 16.9 µM (active)

Cn1cc/c(=N\C=C(C#N)C#N)c2ccccc21
EC50 [4]: 3.98 µM (not active)

O=C(/C=C/c1ccc(O)cc1)c1ccc(/N=C2\C(=O)c3ccccc3C(O)=C2N2CCCCC2)cc1
IC50 [5]: > 67 µM (not active) | EC50 (Protein RecA): 0.707 µM (active) | IC50 [6]: 26.4 µM (not active) | IC50 [7]: > 128 µM (inactive) | CC50 [8]: 8.74 µM (active) | IC50 [9]: 2.91 µM (active) | AC50 [10]: > 380 µM (inactive)

CN(C)c1ccc(C2Nc3cccc4cccc(c34)N2)cc1
IC50 [11]: 6.25 µM (active)

Brc1ccc2nc(-c3ccccc3)cc(NCCCN3CCCCC3)c2c1
IC50 [12]: > 80 µM (inactive) | IC50 [13]: > 80 µM (inactive)

CCOC(=O)N1CCN(C(=O)CSc2nnc(-c3c[nH]c4ccccc34)n2CCOC)CC1
IC50 (Ephrin type-A receptor 4): > 100 µM (not active)

Cc1cc(NC(=O)CS(=O)(=O)c2cn(Cc3cccc(-c4ccn(C)n4)c3)c3ccccc23)no1
EC50 [14]: 3.45 µM (active)
